From patent publication US11666630B2, “Polypeptides for managing viral infections” (priority 2016, dated 2023)
Entries after “also recorded” stand apart in the source; their conditions may differ. Like-named read-outs stand apart in the source and are kept apart here. Peptide text beside a SMILES is read from it.

Assays:
[1] = test system: ZIKV (PRVABC59 strain); details: for activity of truncated and mutant Yodha peptides against ZIKV compared with parent peptide: FIG. 7E; for reduction of ZIKV: dose escalation, FFA
[2] = test system: DENV 3; test: FFA of DENV 3 incubated with peptide
[3] = test system: ZIKV; test: Peptide treatment of Vero cells already infected with ZIKV, FFU assay of culture supernatants; type: cell-based, Zika virus; details: for ZIKV in culture supernatant: 3 hours post-infection, peptide 40 μM
[4] = test system: ZIKV (PRVABC59); test: Immunofluorescence of ZIKV envelope in Vero cells; type: cell-based, Zika virus; details: ZIKV exposed to peptide before infection
[5] = test system: H1N1; type: cell-based, human influenza virus; details: incubated with virus at 37° C. for 1 hour, MDCK cells
[6] = test system: H3N2; type: cell-based, human influenza virus; details: incubated with virus at 37° C. for 1 hour, MDCK cells
[7] = test system: H1N2; type: cell-based, influenza virus
[8] = test system: H3N1; type: cell-based, influenza virus
[9] = test system: influenza viruses; type: cell-based, influenza virus
[10] = test system: H2 avian influenza hemagglutinin; type: binding; details: biotinylated Yodha peptide, streptavidin PE detection
[11] = test system: H5 avian influenza hemagglutinin; type: binding; details: biotinylated Yodha peptide, streptavidin PE detection
[12] = test system: H7 avian influenza hemagglutinin; type: binding; details: biotinylated Yodha peptide, streptavidin PE detection
[13] = test system: H9 avian influenza hemagglutinin; type: binding; details: biotinylated Yodha peptide, streptavidin PE detection
[14] = test system: Recombinant hemagglutinins from three H3 viruses; type: binding, influenza virus; details: biotinylated Yodha peptide, streptavidin PE detection
[15] = test system: Clade A HIV; test: HIV inhibition, graded doses of peptide; type: cell-based; details: 40 uM peptide
Protocol: (§1) FIG. 10A. […] Clades A, B and C HIV viruses were exposed to graded doses (5 um-160 uM) of either Yodha peptide or control OVA peptide.

[16] = test system: Clade B HIV; test: HIV inhibition, graded doses of peptide; type: cell-based; details: 40 uM peptide
Protocol: as §1

[17] = test system: Clade C HIV; test: HIV inhibition, graded doses of peptide; type: cell-based; details: 40 uM peptide
Protocol: as §1

[18] = test system: DENV 1; test: FFA of DENV 1 incubated with peptide
[19] = test system: DENV 2; test: FFA of DENV 2 incubated with peptide
[20] = test system: DENV 4; test: FFA of DENV 4 incubated with peptide
[21] = test system: ZIKV; test: Transmission electron microscopy of peptide-treated ZIKV; details: 200 μM peptide, 10 min treatment
[22] = test system: PRVABC ZIKV; test: ZIKV infection of anti-Ifnar1 mAb treated mice, viremia and viral burden by real time PCR
[23] = test system: ZIKV; test: ZIKV entry into Vero cells, viral RNA by qRT-PCR; details: ZIKV pre-incubated with 200 μM peptide

Which results are given for PMLLLFFLGTISLSLCQ [Short 12 peptide]?
activity of truncated and mutant Yodha peptides against ZIKV compared with parent peptide [1]: significantly improved activity; efficiency against DENV3 infection compared with full length Yodha peptide ([2]; dose escalation): more efficient

`CC[C@H](C)[C@H](NC(=O)[C@@H](NC(=O)CNC(=O)[C@H](CC(C)C)NC(=O)[C@H](Cc1ccccc1)NC(=O)[C@H](Cc1ccccc1)NC(=O)[C@H](CC(C)C)NC(=O)[C@H](CC(C)C)NC(=O)[C@H](CC(C)C)NC(=O)[C@H](CCSC)NC(=O)[C@@H](N)CO)[C@@H](C)O)C(=O)N[C@@H](CO)C(=O)N[C@@H](CC(C)C)C(=O)N[C@@H](CO)C(=O)N[C@@H](CC(C)C)C(=O)N[C@@H](CS)C(=O)N[C@@H](CCC(N)=O)C(=O)N[C@@H](CC(=O)O)C(=O)N[C@@H](CC(=O)O)C(=O)N[C@@H](CCC(N)=O)C(=O)N[C@@H](CCC(=O)O)C(=O)N[C@@H](CCCNC(=N)N)C(=O)N[C@@H](CS)C(=O)O` [Yodha peptide] (H-SMLLLFFLGTISLSLCQDDQERC-OH; N-terminus and C-terminus assumed) was tested. Which “reduction in ZIKV production” value ([3]; 48 and 72 hours post-infection, peptide 40 μM added after infection) did it give?
Its value is 60-70%.

And the “ZIKV in culture supernatant” value [3]?
Its value is “not detected”.

And the “ZIKV titers in the supernatants” value ([3]; peptide 40 μM added after infection)?
Its value is “significantly reduced”.

What about the “expression of ZIKV envelope in Vero cells (immunofluorescence)” value [4] of the same compound?
The value was “decreased expression of ZIKV envelope”.

What about the “virucidal activity against H1N1” value [5] of the same compound?
Its value is “virucidal; also recorded: neutralizes”.

And the “virucidal activity against H3N2” value [6]?
The value was “virucidal; also recorded: neutralizes”.

And the “virucidal activity against H1N2” value [7]?
Its value is “virucidal”.

And the “virucidal activity against H3N1” value [8]?
Its value is “virucidal”.

What about the “activity against subtypes of influenza viruses” value [9] of the same compound?
The value was “effective against all subtypes of influenza viruses; also recorded: effective against may subtypes of influenza viruses”.

And the “binding to H2 hemagglutinin” value [10]?
Its value is “binds”.

And the “binding to H5 hemagglutinin” value [11]?
The value was “binds”.

What about the “binding to H7 hemagglutinin” value [12] of the same compound?
Its value is “binds”.

What about the “binding to H9 hemagglutinin” value [13] of the same compound?
Its value is “binds”.

And the “binding to HA from H3 viruses” value [14]?
Its value is “binds”.

What about the “inhibition of clade A HIV” value [15] of the same compound?
Its value is “efficiently inhibited”.

And the “inhibition of clade B HIV” value [16]?
Its value is “efficiently inhibited”.

What about the “inhibition of clade C HIV” value [17] of the same compound?
The value was “efficiently inhibited”.

And the “time of exposure to virus within which the virus is neutralized” value [1]?
The value was at most 5 min.

What about the “reduction of ZIKV” value ([1]; 10 μM peptide) of the same compound?
Its value is 35%.

What about the “reduction of ZIKV” value ([1]; 20 μM peptide) of the same compound?
Its value is 50%.

What about the “reduction of ZIKV” value ([1]; 40 μM peptide) of the same compound?
The value was 65%.

And the “reduction of ZIKV” value ([1]; 80 μM peptide)?
Its value is 80%.

And the “reduction of ZIKV” value ([1]; 160 μM peptide)?
Its value is 90%.

What about the IC50 ([1]; PRVABC59 strain, 2 h) of the same compound?
The IC50 was 20 µM.

What about the “virucidal activity against DENV 1” value [18] of the same compound?
The value was “virucidal; also recorded: neutralizes”.

What about the “neutralization of DENV 1” value ([18]; 50 μM peptide) of the same compound?
Its value is “easily neutralized; also recorded: effective”.

And the “virucidal activity against DENV 2” value [19]?
The value was “virucidal; also recorded: neutralizes”.

And the “neutralization of DENV 2” value ([19]; 50 μM peptide)?
The value was “easily neutralized; also recorded: effective”.

What about the “virucidal activity against DENV 3” value [2] of the same compound?
Its value is “virucidal; also recorded: neutralizes”.

And the “dose needed for neutralization of DENV 3” value ([2]; 50 μM versus 160 μM peptide)?
Its value is “required higher dose”.

And the “higher dose required to be effective against DENV 4” value [20]?
Its value is 160 µM.

And the “virucidal activity against DENV 4” value [20]?
Its value is “virucidal; also recorded: neutralizes”.

And the “neutralization of DENV 4” value ([20]; 50 μM peptide)?
The value was “easily neutralized; also recorded: effective”.

What about the “morphology of ZIKV particles (electron microscopy)” value [21] of the same compound?
The value was “disruption of viral particles”.

What about the “ZIKV viremia in serum” value ([22]; day 3 post-infection) of the same compound?
The value was “reduces”.

And the “ZIKV viral burden in tissues” value ([22]; day 6, eye and spleen)?
The value was “reduces”.

SMLLLFFLGTISLSLCQ [short Yodha peptide] was tested. Which “activity of truncated and mutant Yodha peptides against ZIKV compared with parent peptide” value [1] did it give?
The value was “significantly improved activity”.

Which results are given for “OVA257-264 peptide (ESIINFEK; UniProt P01012 257-264, looked up, fragment) [OVA peptide, reference compound]”?
ZIKV in culture supernatant [3]: not detected; expression of ZIKV envelope in Vero cells (immunofluorescence) [4]: no such effect; amount of ZIKV RNA detected versus virus-only samples [23]: Comparable amounts; morphology of ZIKV particles (electron microscopy) [21]: intact virions

How did the “effect against ZIKV relative to Yodha peptide” value ([1]; FIG. 7C) turn out when PMLLLFFLGTISLSLCQEEERGA [Variant 12] was run?
The value was 1.6 fold.

How did the “virucidal activity of alanine-scanning mutants compared with Yodha peptide” value ([1]; Yodha set as zero, FIG. 6B) turn out when SMLLLFFAGTISLSLCQDDQERC [peptide 8] was run?
Its value is “statistically significant (p=0.02) antiviral activity than the parental peptide”.

How did the “activity of truncated and mutant Yodha peptides against ZIKV compared with parent peptide” value [1] turn out when PMLLLFFLGTISLSLCQDDQERC [S 1P Yodha] was run?
The value was “significantly more effective”.
